Data set [1] deals with reconstituted three-dimensional human epidermis model (EPISKIN-SM). Nature of the data set: In vitro skin irritation test, EPISKIN-Standard Model, MTT. It counts as cell-based. As for the experimental part:
The skin irritant potential of compound (1a) was analyzed with a reconstituted three-dimensional human epidermis model, the EPISKIN-Standard Model® (EPISKIN-SM®) as a replacement for the Draize Skin Irritation Test (OECD TG 404) to distinguish between UN GHS “Category 2” skin irritating test substances and not categorized test substances (“No Category”) which may be considered as non-irritant. Hereby, the test item was applied topically. Cytotoxicity is expressed as reduction of mitochondrial dehydrogenase activity measured by formazan production from MTT after a 15 min exposure and 42 h post incubation period and compared to those of the concurrent negative controls.
The relative mean tissue viability after 15 min of exposure and 42 h post incubation was >50%. The test item, compound (1a) is therefore classified as “non-irritant” in accordance with UN GHS “No Category”.

The nature of data set [2]: Storage stability study checked by HPLC. The format is physicochemical. Particulars: 0-4° C., 40-90% humidity. How it is done:
A comparison in stability between Compound (Ia) and the substance retin-15-yl ester retinoic acid (CAS No. 15498-86-9) was outlined by performing HPCL analysis of the two compounds throughout an extended storage period.
The stability study was performed at 0-4° C. and 40-90% humidity. The samples of each product, packed in polyethylene bag inside a closed polyethylene box, were maintained under the above mentioned condition for the given time (see below). The stability of the product was checked by HPLC analysis using the method reported here below: A Young Lin YL9100 HPLC System was equipped with a variable volume automatic injector and a YL-Clarity data system. A Capcellpack UG 120 C-18, 150×4.6 mm, 5 μm, column from Agilent Technologies was used with a column temperature of 25±2° C., a flow rate of 1.5 ml/min, an injection volume of 10 μl, a wavelength of 326 nm. The mobile phase was A: water containing 0.1% acetic acid; B: acetonitrile containing 0.1% acetic acid; C: methanol containing 0.1% acetic acid; and D: isopropanol. For a run time of 40 min the gradient was: […]
The Working Solution: dissolve the sample under stability study in acetonitrile in a concentration of 1 mg/ml and inject as it.
With reference to FIG. 1 and FIG. 2, the HPLC peaks with the highest area percentage (retention time 26.1 for Compound (1a) and 12.2 for retin-15-yl ester retinoic acid).

The nature of data set [3]: Highest soluble concentration in DMSO. It counts as physicochemical. As to conditions: organic solvent or mixture.
The next data set relates to BALB/c 3T3 cells. The data set is described as follows: In vitro phototoxicity test, neutral red uptake with and without UVA. The format is cell-based. As for the experimental part:
In the present study the phototoxicity effects of compound (1a) were analyzed by dissolving the test item in DMSO and diluting to 1.100 ratio with Earle's balanced test solution. BALB/C 3T3 cells were treated for 1 h with different concentrations of the test solution at 37±1±° C. and further 50 min in absence and in presence of a non-toxic dose of UVA light, respectively. One day after treatment cytotoxicity was analyzed as a measure of reduction of neutral red uptake and compared to the controls. […] However, since the calculated mean photo effect (MPE) is <0.1 (0.027 in a rangefinder experiment; 0.056 in the main experiment) the test item is classified as non-toxic.

A short description of data set [4]: In vitro skin corrosion membrane barrier test (CORROSITEX Assay). As for the experimental part:
The skin corrosive potential of compound (1a) was analyzed. Corrosive chemicals are dependent on their grade of corrosivity able to break through the bio-barrier membrane employed in the “in vitro Membrane barrier test (CORROSITEX® Assay)” (see EVCAM (2000) ESAC statement on the application of the Corrositex® assay for skin corrosivity testing. The test system is composed of a synthetic bio-barrier that is placed on a chemical detection system (CDS). The time necessary to activate the CDS allows to distinguish between Corrosive© and non-corrosive (NC) test substances. Hereby the test item was placed atop the bio-barrier membranes. The CDS activation was assessed as a color change or a change in consistency. […] Compound (1a) accordingly was classified as non-corrosive.

Converted amounts (≈) assume the structure as drawn. Where only a bound is given, the exact number is not on record here.

In the case of `CC1=C(/C=C/C(C)=C/C=C/C(C)=C/C(=O)OCCNC(=O)c2cccnc2)C(C)(C)CCC1` [Compound (1a), 2-(nicotinamido)-ethyl retinoate], the “relative mean tissue viability” value in data set [1] (15 min exposure, 42 h post incubation) was greater than 50%. Moreover, the “skin irritation classification (UN GHS)” value in data set [1] (UN GHS No Category) is “non-irritant”. Also, the “stability (HPLC)” value in data set [2] (after about two months) is listed as “practically stable”. The solubility in data set [3] was 2000 µg/mL (≈ 4.46 mM). For the same compound, the phototoxicity classification result in the data set on BALB/c 3T3 cells (MPE <0.1) is “non-toxic”. Also, the “cytotoxic effect with UVA radiation” value in the data set with BALB/c 3T3 cells (in case of UVA radiation) is “slight cytotoxic effect”. Besides, the “mean photo effect (MPE)” value was 0.056 in the data set with BALB/c 3T3 cells (main experiment) and 0.027 in the data set on BALB/c 3T3 cells (rangefinder experiment). Also, the skin corrosivity classification entry in data set [4] was “non-corrosive”. Moreover, the “mean time required to activate the CDS” value in data set [4] (Corrositex bio-barrier membrane) is on record as greater than 60 min.

Consider `CC1=C(/C=C/C(C)=C/C=C/C(C)=C/COC(=O)/C=C(C)/C=C/C=C(C)/C=C/C2=C(C)CCCC2(C)C)C(C)(C)CCC1` [retin-15-yl ester retinoic acid, reference compound], for which the “decrease of purity with respect to the starting time (HPLC)” value in data set [2] (in one month) is listed as 5%.

The values are drawn from patent US9549884B2, “Retinoid derivatives and process for their preparation” (SELEGO AB, priority 2013, dated 2017).
